Data reported in patent EP4643858A1, “METHODS AND PHARMACEUTICAL COMPOSITION FOR THE TREATMENT OF UTERINE DISEASE” (Institut National de la Santé et de la Recherche Médicale, priority 2024, dated 2025).

Assays:
P-AKTSer473 [1] = assay: Patient myometrium and myoma samples treated in vitro, Western blot of P-AKT; assay type: cell-based, human; settings: myometrium and myoma samples from patients treated in vitro 24 hours at different doses; Western blot P-AKTSer473 (Figure 4)
Description: (§1) Tissues were crushed and then lysed in RIPA lysis buffer supplemented with phosphatase and protease inhibitors. Protein concentrations were determined through the bicinchoninic acid method (Pierce). Protein extracts were analyzed by Western blot where the transfer membrane was incubated with a primary antibody followed by the appropriate peroxidase-conjugated secondary antibody (dilution 1:10,000). Chemiluminescence were acquired using a Chemidoc MP and bands were quantitated with the Image Lab Software (Bio-Rad Laboratories).
as §1, with “Tissues collected from patients (endometrium, adenomyosis, endometriosis and myoma). Tissues were cultivated in media and treated during 24 hours with either DMSO, alpelisib or ST420 (Compound having formula I and/or its derivatives). Then, they” for “Tissues”, “and” for “and then”, “Laboratories). […]” for “Laboratories).”

[2] = patients treated with alpelisib; cited from earlier work
P-AKTSer473 [3] = assay: Patient tissues (healthy endometrium, adenomyosis or endometriosis lesions) treated in vitro, Western blot of P-AKT; assay type: cell-based, human; settings: healthy endometrium and lesions of adenomyosis or endometriosis from patients, exposed in vitro during 24 hours to different doses; Western blot P-AKTSer473 (Figure 3B)
Description: as §1
as §1, with “Tissues collected from patients (endometrium, adenomyosis, endometriosis and myoma). Tissues were cultivated in media and treated during 24 hours with either DMSO, alpelisib or ST420 (Compound having formula I and/or its derivatives). Then, they” for “Tissues”, “and” for “and then”
PIK3CA pharmacological inhibitors are developed for oncology and other medical situations. […]

Cc1nc(NC(=O)N2CCC[C@H]2C(N)=O)sc1-c1ccnc(C(C)(C)C(F)(F)F)c1 [alpelisib]
inhibition of the PIK3CA pathway in myoma (P-AKTSer473 [1]): able to inhibit the pathway in myoma | insulin resistance which can lead to diabetes, share of patients [2]: about 30% | phosphorylation of AKT (P-AKTSer473 [3]): able to shut down the phosphorylation of AKT
